This is an account of results in ChEMBL document CHEMBL4665861, “Chemical constituents from Macleaya cordata (Willd) R. Br. and their phenotypic functions against a Parkinson's disease patient-derived cell line” (Bioorg Med Chem, 2020).

Activity calls are given as the source filed them. The calls are words filed in the database; no cut-off is given here.

In series [1] the test system is C1200080013. Kind of series: Induction of cytological phenotypic changes in cellular organelles in Parkinson's disease patient human ONS derived C1200080013 cells assessed as perturbation in mitochondrial features by measuring punctuate and fragmented mitochondrial morphology at 30 uM incubated for 24 hrs by MitoTrackerOrange CMTMRos/DAPI staining based fluorescence microscopic analysis. It counts as functional, cell-based.

Series [2] in a line: Induction of cytological phenotypic changes in cellular organelles in Parkinson's disease patient human ONS derived C1200080013 cells assessed as perturbation of mitochondria marker intensity in inner region of cytoplasm by measuring log2ratio at 30 uM incubated for 24 hrs by MitoTrackerOrange CMTMRos/DAPI staining based fluorescence microscopic analysis. The format is functional.

A short description of series [3]: Induction of cytological phenotypic changes in cellular organelles in Parkinson's disease patient human ONS derived C1200080013 cells assessed as perturbation of EEA1 marker intensity in cytoplasm by measuring log2ratio at 30 uM incubated for 24 hrs by LysoTrackerRed DND-99/anti-EEA1 staining based fluorescence microscopic analysis. It counts as tissue-based. The note with it: c1200080013, 24 h.

A short description of series [4]: Induction of cytological phenotypic changes in cellular organelles in Parkinson's disease patient human ONS derived C1200080013 cells assessed as perturbation of auto-phagosomal LC3b marker intensity in inner region of cytoplasm by measuring log2ratio at 30 uM incubated for 24 hrs by anti-LC3b1/335/DAPI staining based fluorescence microscopic analysis. It counts as tissue-based. The following applies: c1200080013, 24 h.

Series [5] can be described thus: Cytotoxicity against Parkinson's disease patient human ONS derived C1200080013 cells assessed as cell death at 30 uM incubated for 24 hrs. It counts as cell-based. The note with it: c1200080013, 24 h.
The nature of series [6]: Induction of cytological phenotypic changes in cellular organelles in Parkinson's disease patient human ONS derived C1200080013 cells assessed as perturbation of mitochondria features by measuring reduction in MitoTracker staining intensity at 30 uM incubated for 24 hrs by MitoTrackerOrange CMTMRos/DAPI staining based fluorescence microscopic analysis. The note with it: c1200080013, 24 h.

Series [7] can be described thus: Induction of cytological phenotypic changes in cellular organelles in Parkinson's disease patient human ONS derived C1200080013 cells assessed as perturbation of auto-phagosomal features by measuring depletion in LC3b staining intensity at 30 uM incubated for 24 hrs by anti-LC3b1/335/DAPI staining based fluorescence microscopic analysis. It counts as tissue-based. The note with it: c1200080013, 24 h.

Series [8] in a line: Induction of cytological phenotypic changes in cellular organelles in Parkinson's disease patient human ONS derived C1200080013 cells assessed as perturbation of early endosomal features by measuring reduction in EEA1 staining intensity at 30 uM incubated for 24 hrs by LysoTrackerRed DND-99/anti-EEA1 staining based fluorescence microscopic analysis. It counts as tissue-based. The following applies: c1200080013, 24 h.

The nature of series [9]: Induction of cytological phenotypic changes in cellular organelles in Parkinson's disease patient human ONS derived C1200080013 cells assessed as changes in features associated with early endosome antigen1 by measuring alteration in EEA1 staining intensity at 10 uM incubated for 24 hrs by LysoTrackerRed DND-99/anti-EEA1 staining based fluorescence microscopic analysis. The format is […]. The following applies: c1200080013, 24 h.

Series [10] can be described thus: Induction of cytological phenotypic changes in cellular organelles in Parkinson's disease patient human ONS derived C1200080013 cells assessed as changes in mitochondria marker intensity in inner region of cytoplasm at 20 uM incubated for 24 hrs by MitoTrackerOrange CMTMRos/DAPI staining based fluorescence microscopic analysis. The following applies: c1200080013, 24 h.

As for `COc1ccc2c(c1OC)C(CO)N(C)c1c-2ccc2cc3c(cc12)OCO3` (configuration not stated), the outcome in series [1] was Active. In addition, the “log(ratio)” value is reported as -0.85 in series [2] and -0.73 in series [3].
`COc1ccc2c(c1OC)C(C(C)O)N(C)c1c-2ccc2cc3c(cc12)OCO3` (configuration not stated): the “log(ratio)” value in series [4] is recorded as -0.99.
Turning to `C[n+]1cc2c3c(ccc2c2ccc4cc5c(cc4c21)OCO5)OCO3` [SANGUINARIUM], the Activity result in [5] is recorded as “Toxic”.
For the molecule `COc1cc(/C=C/C(=O)O)ccc1O[C@@H]1O[C@H](CO)[C@@H](O)[C@H](O)[C@H]1O`, the Activity result in series [6], in series [7] and in [8] was “Non-Toxic” throughout.
As to `CCN(CC)CCCC(C)Nc1ccnc2cc(Cl)ccc12` (configuration not stated) [CHLOROQUINE], the Activity result in series [7] was “Non-Toxic”; in series [9], “Toxic”.
In the case of `C=C(C)[C@H]1Cc2c(ccc3c2O[C@@H]2COc4cc(OC)c(OC)cc4[C@@H]2C3=O)O1` [ROTENONE], the Activity entry in series [10] was “Toxic”.
With `COc1cc(OC)c2c(c[n+](C)c3c4cc5c(cc4ccc23)OCO5)c1OC`, the Activity entry in series [5] is “Toxic”.
On the same count and under the same terms, the entry for `COc1ccc2c(c[n+](C)c3c4cc5c(cc4ccc23)OCO5)c1OC` [CHELERYTHRINE] is “Toxic”.
As to `COc1cc(/C=C/C(=O)O[C@@H]2C[C@](O)(C(=O)O)C[C@@H](O)[C@H]2O)ccc1O`, the Activity result in series [6], in [7] and in series [8] was “Non-Toxic” throughout.
Consider `COc1cc2c(c3c[n+](C)c4c5cc6c(cc5ccc4c13)OCO6)OCO2`, for which the Activity entry in [5] is listed as “Toxic”.
